Tests used:
Format in all cases: functional
Rattus norvegicus [1] = assay: Total iron output induced by the compound in urine (non-iron-overloaded bile duct cannulated rat), after 24 hours of po administration.
Rattus norvegicus [2] = assay: Total iron output induced by the compound in urine (non-iron-overloaded bile duct cannulated rat), after 24 hours of sc administration.
Rattus norvegicus [3] = assay: Total iron output induced by the compound in bile (non-iron-overloaded bile duct cannulated rat), after 15 hours of po administration.
Rattus norvegicus [4] = assay: Total iron output induced by the compound in bile (non-iron-overloaded bile duct cannulated rat), after 15 hours of sc administration.
Rattus norvegicus [5] = assay: Total iron output induced by the compound in bile (non-iron-overloaded bile duct cannulated rat), after 18 hours of po administration.
Rattus norvegicus [6] = assay: Total iron output induced by the compound in bile (non-iron-overloaded bile duct cannulated rat), after 18 hours of sc administration.
Rattus norvegicus [7] = assay: Total iron output induced by the compound in bile (non-iron-overloaded bile duct cannulated rat), after 21 hours of po administration.
Rattus norvegicus [8] = assay: Total iron output induced by the compound in bile (non-iron-overloaded bile duct cannulated rat), after 21 hours of sc administration.
Rattus norvegicus [9] = assay: Total iron output induced by the compound in bile (non-iron-overloaded bile duct cannulated rat), after 24 hours of po administration.
Rattus norvegicus [10] = assay: Total iron output induced by the compound in bile (non-iron-overloaded bile duct cannulated rat), after 24 hours of sc administration.
Rattus norvegicus [11] = assay: Total iron output induced by the compound in bile (non-iron-overloaded bile duct cannulated rat), after 3 hours of po administration.
Rattus norvegicus [12] = assay: Total iron output induced by the compound in bile (non-iron-overloaded bile duct cannulated rat), after 3 hours of sc administration.
Rattus norvegicus [13] = assay: Total iron output induced by the compound in bile (non-iron-overloaded bile duct cannulated rat), after 6 hours of po administration.
Rattus norvegicus [14] = assay: Total iron output induced by the compound in bile (non-iron-overloaded bile duct cannulated rat), after 6 hours of sc administration.
Rattus norvegicus [15] = assay: Total iron output induced by the compound in bile (non-iron-overloaded bile duct cannulated rat), after 9 hours of po administration.
Rattus norvegicus [16] = assay: Total iron output induced by the compound in bile (non-iron-overloaded bile duct cannulated rat), after 9 hours of sc administration.
Rattus norvegicus [17] = assay: Total iron output induced by the compound in non-iron-overloaded bile duct cannulated rat(Treated-control), after 24 hours of po administration.
Rattus norvegicus [18] = assay: Total iron output induced by the compound in non-iron-overloaded bile duct cannulated rat(Treated-control), after 24 hours of sc administration.
Rattus norvegicus [19] = assay: Total iron output induced by the compound in non-iron-overloaded bile duct cannulated rat, after 24 hours of po administration.
Rattus norvegicus [20] = assay: Total iron output induced by the compound in non-iron-overloaded bile duct cannulated rat, after 24 hours of sc administration.
Rattus norvegicus [21] = assay: Total iron output induced by the compound in bile (non-iron-overloaded bile duct cannulated rat), after 12 hours of po administration.
Rattus norvegicus [22] = assay: Total iron output induced by the compound in bile (non-iron-overloaded bile duct cannulated rat), after 12 hours of sc administration.

| SMILES | Iron output (Rattus norvegicus [1]) | Iron output (Rattus norvegicus [2]) | Iron output (Rattus norvegicus [3]) | Iron output (Rattus norvegicus [4]) | Iron output (Rattus norvegicus [5]) | Iron output (Rattus norvegicus [6]) | Iron output (Rattus norvegicus [7]) | Iron output (Rattus norvegicus [8]) | Iron output (Rattus norvegicus [9]) | Iron output (Rattus norvegicus [10]) | Iron output (Rattus norvegicus [11]) | Iron output (Rattus norvegicus [12]) | Iron output (Rattus norvegicus [13]) | Iron output (Rattus norvegicus [14]) | Iron output (Rattus norvegicus [15]) | Iron output (Rattus norvegicus [16]) | Iron output (Rattus norvegicus [17]) | Iron output (Rattus norvegicus [18]) | Iron output (Rattus norvegicus [19]) | Iron output (Rattus norvegicus [20]) | further results |
| --- | --- | --- | --- | --- | --- | --- | --- | --- | --- | --- | --- | --- | --- | --- | --- | --- | --- | --- | --- | --- | --- |
| COCCOCCOCCN(O)C(=O)CCC(=O)NCCCCCN(O)C(=O)CCC(=O)NCCCCCN(O)C(=O)COCCOCCOC | 13.3 | 45.3 | 67.9 | 509.1 | 74.6 | 526 | 81.3 | 534.2 | 86.6 | 539.7 | 16.3 | 106.9 | 31.7 | 244.4 | 42.5 | 362.6 | 34.6 | 519.8 | 99.8 | 585 | Iron output (Rattus norvegicus [21]): 59.7; Iron output (Rattus norvegicus [22]): 467 |
| COCCOCCOCCN(O)C(=O)CCC(=O)NCCCCCN(O)C(=O)CCC(=O)NCCCCCN(O)C(C)=O | 15 | 68.4 | 76.5 | 519.6 | 83.8 | 561.2 | 89 | 585.9 | 93.7 | 599.5 | 20.2 | 117.3 | 42.8 | 262.5 | 56.8 | 374.6 | 43.5 | 602.7 | 108.7 | 667.9 | Iron output (Rattus norvegicus [21]): 67.5; Iron output (Rattus norvegicus [22]): 456.1 |
| CC(=O)N(O)CCCCCNC(=O)CCC(=O)N(O)CCCCCNC(=O)CCC(=O)N(O)CCCCCN [DEFEROXAMINE] | 16.5 | 49.2 | 110.8 | 196.2 | 119.8 | 210.7 | 128.7 | 219.8 | 135 | 228.4 | 14.7 | 43.6 | 43.9 | 105.9 | 76.8 | 152.8 | 86.3 | 212.4 | 151.5 | 277.6 | Iron output (Rattus norvegicus [21]): 97.1; Iron output (Rattus norvegicus [22]): 173.9 |
